Patent publication US20070185129A1, “ACID ADDITION SALTS OF THIENOPYRANCARBOXAMIDE DERIVATIVES” (Recordati Ireland Limited, priority 2006, published 2007)

Key:
water solubility = assay type: physicochemical
[1] = target: T1, recombinant human α1a receptor (Homo sapiens, UniProt P35348); details: cited from earlier work
T1 sequence (P35348 1-466): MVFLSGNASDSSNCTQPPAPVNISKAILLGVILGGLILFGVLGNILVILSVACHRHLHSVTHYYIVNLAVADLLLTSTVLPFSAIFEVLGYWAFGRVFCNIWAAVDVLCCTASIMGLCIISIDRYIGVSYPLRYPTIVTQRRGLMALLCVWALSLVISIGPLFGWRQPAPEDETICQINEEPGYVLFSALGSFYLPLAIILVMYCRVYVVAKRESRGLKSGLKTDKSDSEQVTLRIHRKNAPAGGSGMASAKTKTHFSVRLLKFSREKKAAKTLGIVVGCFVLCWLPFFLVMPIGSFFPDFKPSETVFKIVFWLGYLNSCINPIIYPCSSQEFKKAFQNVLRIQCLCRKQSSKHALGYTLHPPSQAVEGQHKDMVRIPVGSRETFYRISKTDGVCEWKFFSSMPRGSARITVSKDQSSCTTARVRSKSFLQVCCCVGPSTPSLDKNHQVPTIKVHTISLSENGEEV

stability of solid form = assay type: physicochemical
α1L receptor = details: isolated rabbit aorta model system; cited from earlier work
α1b receptor = target: T2, α1b receptor (Homo sapiens, UniProt P35368); assay: selectivity for α1a receptor compared to α1b receptor; assay type: binding
T2 sequence (P35368 1-520): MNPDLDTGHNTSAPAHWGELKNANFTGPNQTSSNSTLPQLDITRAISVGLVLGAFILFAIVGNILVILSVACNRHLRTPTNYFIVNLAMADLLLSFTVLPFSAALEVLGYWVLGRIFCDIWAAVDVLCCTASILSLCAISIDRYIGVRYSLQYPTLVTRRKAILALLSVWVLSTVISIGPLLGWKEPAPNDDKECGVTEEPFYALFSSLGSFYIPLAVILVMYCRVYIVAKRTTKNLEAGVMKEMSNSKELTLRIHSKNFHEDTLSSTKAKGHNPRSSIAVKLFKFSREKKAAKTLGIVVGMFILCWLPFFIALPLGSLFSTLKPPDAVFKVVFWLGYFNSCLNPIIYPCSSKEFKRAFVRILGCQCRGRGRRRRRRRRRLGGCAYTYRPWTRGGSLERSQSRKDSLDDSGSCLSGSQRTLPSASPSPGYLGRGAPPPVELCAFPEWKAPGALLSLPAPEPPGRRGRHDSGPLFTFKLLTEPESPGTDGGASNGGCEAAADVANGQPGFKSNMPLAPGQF

[2] = target: T3, recombinant human 5-HT1A receptor (Homo sapiens, UniProt P08908); assay: selectivity for α1a receptor relative to 5-HT1A receptor; assay type: binding
T3 sequence (P08908 1-422): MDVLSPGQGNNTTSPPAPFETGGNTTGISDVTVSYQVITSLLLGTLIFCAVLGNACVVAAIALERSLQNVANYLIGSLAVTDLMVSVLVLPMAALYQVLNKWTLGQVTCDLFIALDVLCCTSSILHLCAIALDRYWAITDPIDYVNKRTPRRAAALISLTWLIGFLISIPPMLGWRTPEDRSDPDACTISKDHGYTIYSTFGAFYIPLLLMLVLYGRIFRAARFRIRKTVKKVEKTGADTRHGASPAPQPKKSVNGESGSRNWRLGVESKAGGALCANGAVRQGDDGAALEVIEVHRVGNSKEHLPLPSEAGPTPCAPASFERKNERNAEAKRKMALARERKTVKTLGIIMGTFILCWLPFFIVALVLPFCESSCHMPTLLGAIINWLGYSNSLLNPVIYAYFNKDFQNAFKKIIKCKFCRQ

α1d receptor = target: T4, α1d receptor (Homo sapiens, UniProt P25100); assay: selectivity for α1a receptor compared to α1d receptor; assay type: binding
T4 sequence (P25100 1-572): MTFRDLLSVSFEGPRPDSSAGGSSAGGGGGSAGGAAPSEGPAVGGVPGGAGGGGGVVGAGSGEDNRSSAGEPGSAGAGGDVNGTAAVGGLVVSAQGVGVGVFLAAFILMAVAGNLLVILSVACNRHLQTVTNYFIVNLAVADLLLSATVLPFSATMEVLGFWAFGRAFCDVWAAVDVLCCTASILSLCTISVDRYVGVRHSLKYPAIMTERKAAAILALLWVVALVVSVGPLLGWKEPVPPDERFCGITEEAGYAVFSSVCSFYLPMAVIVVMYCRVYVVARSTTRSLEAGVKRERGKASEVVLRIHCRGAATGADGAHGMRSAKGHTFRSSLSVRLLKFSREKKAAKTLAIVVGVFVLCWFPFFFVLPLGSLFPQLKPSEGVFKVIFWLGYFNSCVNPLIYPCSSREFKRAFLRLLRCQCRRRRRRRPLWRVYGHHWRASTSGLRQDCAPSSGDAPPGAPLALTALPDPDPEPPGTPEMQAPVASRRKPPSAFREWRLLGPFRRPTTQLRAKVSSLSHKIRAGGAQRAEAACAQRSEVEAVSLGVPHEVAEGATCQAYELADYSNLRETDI

| solubility (water solubility; water, at 25° C.) | heat stability / stability (in words) (stability of solid form) | selectivity for α1a receptor as compared to the α1b receptor (α1b receptor) | selectivity for the recombinant human α1a receptor relative to the recombinant human 5-HT1A receptor [2] | selectivity for α1a receptor as compared to the α1d receptor (α1d receptor) | SMILES | water solubility (in words) (water solubility) | affinity for the α1a receptor [1] | functional antagonism of the α1L receptor (α1L receptor) |
| --- | --- | --- | --- | --- | --- | --- | --- | --- |
| 100 mg/mL |  |  |  |  | COc1ccccc1N1CCN(CCCNC(=O)c2csc3c(=O)cc(C(F)(F)F)oc23)CC1.CS(=O)(=O)O [Example 2A, N-{3-[4-(2-methoxyphenyl)-1-piperazinyl]propyl}-7-oxo-5-trifluoromethyl-7H-thieno[3,2-b]pyran-3-carboxamide mesylate salt] | improved water solubility compared to the free base |  |  |
|  | heat instability | ~40 fold | ~45 fold | ~6 fold | COc1ccccc1N1CCN(CCCNC(=O)c2csc3c(=O)cc(C(F)(F)F)oc23)CC1 [Example 1, N-{3-[4-(2-methoxyphenyl)-1-piperazinyl]propyl}-7-oxo-5-trifluoromethyl-7H-thieno[3,2-b]pyran-3-carboxamide] | poor water solubility | high affinity | functional antagonism |
